Measurements published in US20140350119A1, “OPHTHALMIC COMPOSITION COMPRISING GERANYLGERANYLACETONE” (ROHTO PHARMACEUTICAL CO., LTD., priority 2012, published 2014).

What was measured:
PC12 = experiment: Protective effect against ischemic cell death induced by hypoxia and low glucose (cell viability, Cell Titer-Glo); type: cell-based, rat; conditions: 30 μM, 2 h, then low glucose, zero percent O2, 8 h, FIG. 1, Tukey-Kramer test
Source text: The progress of visual impairment in glaucoma is associated with retinal ganglion cell (RGC) death due to blood flow failure occurring near the optic nerve (Folia Pharmacol. Jpn. 128, 255-258 (2006)). With the use of PC12, which is a typical neural cell line established from rat adrenal […] pheochromocytoma and used also as a model cell for the functional evaluation of RGC (J Neurosci Res. 2000 May 15; 60(4): 495-503.), the cytoprotective effect of GGA against ischemic cell death induced by hypoxia and low glucose was evaluated.
Test samples were prepared as follows. The test substances were four types of GGAs that contain the all-trans form and the 5Z-mono-cis form at a weight ratio of 10:0, 8:2, 6:4, and 0:10, respectively. […]
After 8 hours of incubation, 100 μL of an equivalent mixture of a cell viability detection reagent Cell Titer-Glo (Promega) and PBS was added to each well and the luminescence produced by the reaction with ATP in living cells was measured with a luminometer (GloMax; Promega). The cell viability was calculated from the measured luminescence by the following formula and the cytoprotective effect of GGA against […] was examined.
(§1) Cell viability (%)=100×[(luminescence of base- or GGA-treated group)/(luminescence of non-treated group)]

ARPE-19 = experiment: Protective effect for retinal pigment epithelial cells against oxidative stress by hydrogen peroxide; type: cell-based, human; conditions: all-trans form content 280 μM, 14 hours, then 750 μM hydrogen peroxide 2 hours, FIG. 4, n=3
Source text: The involvement of oxidative stress in ophthalmologic diseases has been widely reported. Such involvement has been observed in, in addition to glaucoma and cataract, retinal diseases such as retinal diseases due to diabetes, hypertension, hyperlipemia, etc., age-related macular degeneration, retinopathy of prematurity, retinal vascular occlusion, retinal light damage, etc. (Nippon Ganka Gakkai Zasshi. 112, 22-29 (2008)). In the retina, the retinal pigment epithelium exists in an environment in which reactive oxygen easily generates (Invest Opthalmol Vis Sci. 2006 July 47(7): 3164-3177.). […]
After 2 hours of incubation, the cell culture supernatant was removed, and 200 μL of PBS was added to each well and promptly removed. Then, 100 μL of an equivalent mixture of a cell viability detection reagent Cell Titer-Glo (Promega) and PBS was added to each well and the luminescence produced by the reaction with ATP in living cells was measured with a luminometer (GloMax; Promega). The cell viability was calculated from the measured luminescence by the following formula and the cytoprotective effect of GGA against oxidative stress by hydrogen peroxide was examined.
as §1

For `CC(=O)CC/C=C(\C)CC/C=C(\C)CC/C=C(\C)CCC=C(C)C` [all-trans form, (5E,9E,13E)-6,10,14,18-tetramethyl-5,9,13,17-nonadecatetrae n-2-one], the “Cytoprotective effect compared with GGA of weight ratio 6:4” value (PC12) was “significantly higher cytoprotective effects” and the “Cell viability compared with base-treated group” value (ARPE-19) was “significantly higher cell viabilities”.
